Source: ChEMBL document CHEMBL1821593, “Synthesis and α-Glucosidase II inhibitory activity of valienamine pseudodisaccharides relevant to N-glycan biosynthesis” (Bioorg Med Chem Lett, 2011)
Calls of active or inactive are those of the source. No cut-off for these calls is given here.

Key:
Rattus norvegicus [1] = species on record: Rattus norvegicus; assay: Inhibition of rat liver Alpha-glucosidase II upto 500 uM using Glc2Man7GlcNAc2 substrate after 2 hrs by NP-HPLC analysis
Rattus norvegicus [2] = species on record: Rattus norvegicus; assay: Inhibition of rat liver Alpha-glucosidase II upto 500 uM using Glc1Man5GlcNAc1 substrate after 90 mins by NP-HPLC analysis
HL-60 [3] = assay: Inhibition of Alpha-glucosidase II in human HL60 cells using 2-Anthranilic acid labelled NB-DNJ substrate after 24 hrs by HPLC analysis relative to control; assay type: cell-based
[4] = Inhibition of rat liver Alpha-glucosidase II using Glc1Man5GlcNAc1 substrate after 90 mins by NP-HPLC analysis
[5] = Inhibition of rat liver Alpha-glucosidase II using Glc2Man7GlcNAc2 substrate after 2 hrs by NP-HPLC analysis
HL-60 [6] = assay: Inhibition of Alpha-glucosidase II in human HL60 cells assessed as Glc1Man4GlcNAc1 formation using 2-Anthranilic acid labelled NB-DNJ substrate by HPLC analysis; assay type: cell-based
Rattus norvegicus [7] = species on record: Rattus norvegicus; assay: (§1) Inhibition of rat liver Alpha-glucosidase I using Glc3Man9GlcNAc2 substrate
Rattus norvegicus [8] = species on record: Rattus norvegicus; assay: (§2) Inhibition of rat liver Alpha-glucosidase II using p-nitrophenyl alpha D-glucopyranoside substrate
[9] = Inhibition of rat liver Alpha-glucosidase II
[10] = as §1
[11] = as §2
HL-60 [12] = assay: Inhibition of Alpha-glucosidase I in human HL60 cells using Glc3Man9GlcNAc2 substrate after 24 hrs by HPLC analysis; assay type: cell-based

CO[C@H]1O[C@H](CN[C@H]2C=C(CO)[C@@H](O)[C@H](O)[C@H]2O)[C@@H](O)[C@H](O)[C@H]1O
inhibition (Rattus norvegicus [1]): inactive | inhibition (Rattus norvegicus [2]): inactive | inhibition (HL-60 [3]): inactive

CO[C@H]1O[C@H](CO)[C@@H](O)[C@H](N[C@H]2C=C(CO)[C@@H](O)[C@H](O)[C@H]2O)[C@H]1O
IC50 [4]: 143 µM | IC50 [5]: 72 µM | inhibition (HL-60 [6]): Active

CO[C@H]1O[C@H](CO)[C@@H](O)[C@H](N[C@H]2[C@H](O)[C@H](O)[C@@H](O)[C@H](O)[C@H]2O)[C@H]1O
inhibition (Rattus norvegicus [7]): inactive | inhibition (Rattus norvegicus [8]): inactive

CO[C@H]1O[C@H](CO)[C@@H](O)[C@H](N[C@H]2C=C(CO)[C@@H](O)[C@H](O)[C@H]2O)[C@@H]1O
IC50 [4]: 236 µM | inhibition (Rattus norvegicus [1]): inactive | inhibition (HL-60 [6]): Active

CCCCN1C[C@H](O)[C@@H](O)[C@H](O)[C@H]1CO
IC50 [9]: 4.6 µM

CO[C@H]1O[C@H](CN[C@@H]2C=C(CO)[C@@H](O)[C@H](O)[C@H]2O)[C@@H](O)[C@H](O)[C@H]1O
inhibition (Rattus norvegicus [1]): inactive | inhibition (Rattus norvegicus [2]): inactive | inhibition (HL-60 [3]): inactive

CO[C@H]1O[C@H](CO)[C@@H](O)[C@H](O)[C@H]1N[C@H]1C=C(CO)[C@@H](O)[C@H](O)[C@H]1O
inhibition (Rattus norvegicus [7]): inactive | inhibition (Rattus norvegicus [8]): inactive

N[C@H]1C=C(CO)[C@@H](O)[C@H](O)[C@H]1O [VALIENAMINE]
IC50 [10]: 780 µM | IC50 [11]: 1000 µM | inhibition (HL-60 [12]): inactive
